Results reported in US20230103791A1 (GLAXOSMITHKLINE INTELLECTUAL PROPERTY DEVELOPMENT LIMITED, priority 2019, published 2023).

biological target: T1, human Nav1.8 (Homo sapiens, UniProt Q9Y5Y9); assay: Nav1.8 sodium channels assay, QPatch 48 HTX electrophysiology in HEK293-Nav1.8 cells; assay type: cell-based; details: at least one set of experimental runs; read-out: average pIC50 value against Nav1.8 (converted)
T1 construct: expressed in transfected cells; host or cells: HEK293 (HEK293-Nav1.8)
Method in brief: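 IC50 came from 6-8 point curves of P2 current amplitude, normalized to baseline and a positive reference, and corrected for run-down using vehicle-only wells. Automated patch clamp used HEK293-Nav1.8 (with Navβ1 and TREK1) at pH 7.4 outside and CsF-based solution inside. An 8 s inactivating step at −46 mV preceded the 0 mV test pulse, repeated at 0.07 Hz.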

T1 sequence (Q9Y5Y9 whole entry): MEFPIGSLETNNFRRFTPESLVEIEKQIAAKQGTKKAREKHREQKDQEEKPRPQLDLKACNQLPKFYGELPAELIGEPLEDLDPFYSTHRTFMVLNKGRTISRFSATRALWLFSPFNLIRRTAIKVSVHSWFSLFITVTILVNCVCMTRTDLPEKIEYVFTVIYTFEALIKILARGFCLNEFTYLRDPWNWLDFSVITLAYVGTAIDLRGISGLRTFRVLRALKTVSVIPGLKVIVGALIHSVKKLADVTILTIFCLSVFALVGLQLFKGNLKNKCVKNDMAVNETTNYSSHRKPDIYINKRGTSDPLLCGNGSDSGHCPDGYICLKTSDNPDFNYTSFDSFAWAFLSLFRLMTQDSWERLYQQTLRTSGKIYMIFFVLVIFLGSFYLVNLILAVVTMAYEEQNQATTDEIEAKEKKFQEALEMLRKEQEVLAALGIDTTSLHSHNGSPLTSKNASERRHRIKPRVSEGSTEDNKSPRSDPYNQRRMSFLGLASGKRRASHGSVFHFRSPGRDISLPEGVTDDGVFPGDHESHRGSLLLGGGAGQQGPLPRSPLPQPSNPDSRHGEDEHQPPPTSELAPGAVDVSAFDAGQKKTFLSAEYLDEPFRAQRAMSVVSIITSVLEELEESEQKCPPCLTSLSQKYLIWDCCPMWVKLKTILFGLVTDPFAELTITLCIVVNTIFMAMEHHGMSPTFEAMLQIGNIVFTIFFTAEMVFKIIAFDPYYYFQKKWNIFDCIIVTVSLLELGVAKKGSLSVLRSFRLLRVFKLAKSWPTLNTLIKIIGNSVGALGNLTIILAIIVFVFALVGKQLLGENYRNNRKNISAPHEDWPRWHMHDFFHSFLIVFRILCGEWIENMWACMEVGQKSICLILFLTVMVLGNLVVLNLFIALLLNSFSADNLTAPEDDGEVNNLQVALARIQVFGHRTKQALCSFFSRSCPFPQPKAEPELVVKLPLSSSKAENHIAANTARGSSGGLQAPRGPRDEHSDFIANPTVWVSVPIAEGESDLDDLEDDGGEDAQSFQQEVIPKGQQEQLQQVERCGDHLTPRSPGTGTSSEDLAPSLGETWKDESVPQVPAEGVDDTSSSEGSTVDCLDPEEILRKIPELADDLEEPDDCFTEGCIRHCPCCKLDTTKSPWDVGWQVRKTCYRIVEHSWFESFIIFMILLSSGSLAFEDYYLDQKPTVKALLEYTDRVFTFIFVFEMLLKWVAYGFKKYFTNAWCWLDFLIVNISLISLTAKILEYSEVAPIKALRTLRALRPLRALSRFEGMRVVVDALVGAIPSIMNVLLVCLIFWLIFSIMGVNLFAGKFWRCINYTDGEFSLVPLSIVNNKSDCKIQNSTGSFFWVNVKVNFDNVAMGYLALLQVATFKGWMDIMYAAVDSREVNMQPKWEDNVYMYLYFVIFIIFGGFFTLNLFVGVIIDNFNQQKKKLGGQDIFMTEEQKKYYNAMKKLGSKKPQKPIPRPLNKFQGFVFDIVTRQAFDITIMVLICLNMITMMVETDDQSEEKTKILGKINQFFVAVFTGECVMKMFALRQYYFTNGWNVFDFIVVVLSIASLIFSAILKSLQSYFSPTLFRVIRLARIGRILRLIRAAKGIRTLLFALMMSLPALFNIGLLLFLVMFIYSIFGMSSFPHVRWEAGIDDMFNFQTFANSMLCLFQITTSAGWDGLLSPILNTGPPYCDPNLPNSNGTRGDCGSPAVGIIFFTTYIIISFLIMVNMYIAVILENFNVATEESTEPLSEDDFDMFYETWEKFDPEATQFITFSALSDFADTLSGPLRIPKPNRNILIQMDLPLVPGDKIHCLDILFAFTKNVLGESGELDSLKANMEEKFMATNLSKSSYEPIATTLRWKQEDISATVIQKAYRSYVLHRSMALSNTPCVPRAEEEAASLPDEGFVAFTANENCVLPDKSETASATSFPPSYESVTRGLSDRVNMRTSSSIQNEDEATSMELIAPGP
T1 sequence (Q07699 19-218 partner): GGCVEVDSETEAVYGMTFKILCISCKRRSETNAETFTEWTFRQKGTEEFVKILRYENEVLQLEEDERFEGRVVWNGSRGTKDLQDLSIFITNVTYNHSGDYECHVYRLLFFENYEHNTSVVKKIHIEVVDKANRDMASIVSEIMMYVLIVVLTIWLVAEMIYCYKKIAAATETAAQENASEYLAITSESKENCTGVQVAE

| Compound | IC50 |
| --- | --- |
| Cc1cc(F)ccc1N1CN(c2ccc(=O)[nH]c2C)C(=O)c2cc(Cl)c(Cl)nc21 [Example 73, 6,7-dichloro-1-(4-fluoro-2-methylphenyl)-3-(2-methyl-6-oxo-1,6-dihydropyridin-3-yl)-2,3-dihydropyrido[2,3-d]pyrimidin-4(1H)-one] | ≤ 100 nM |
| Cc1cc(F)ccc1N1CN(c2ccc(=O)[nH]c2C)C(=O)c2cc(C#N)ccc21 [Example 75, 1-(4-fluoro-2-methylphenyl)-3-(2-methyl-6-oxo-1,6-dihydropyridin-3-yl)-4-oxo-1,2,3,4-tetrahydroquin-azoline-6-carbonitrile] | 126 to 631 nM |
| Cc1[nH]c(=O)ccc1N1CN(c2ccc(F)c(O)c2C)c2cc(C(F)(F)F)ccc2C1=O [Example 77, 1-(4-fluoro-3-hydroxy-2-methylphenyl)-3-(2-methyl-6-oxo-1,6-dihydropyridin-3-yl)-7-(trifluoromethyl)-2,3-dihydroquinazolin-4(1H)-one] | 126 to 631 nM |
| Cc1cc(F)ccc1N1CN(c2ccc(=O)[nH]c2)C(=O)c2c1ccc(Cl)c2F [Example 78, 6-chloro-5-fluoro-1-(4-fluoro-2-methylphenyl)-3-(6-oxo-1,6-dihydropyridin-3-yl)-2,3-dihydroquinazolin-4(1H)-one] | 126 to 631 nM |
| Cc1cc(F)ccc1N1CN(c2ccc(=O)[nH]c2C)C(=O)c2c1ccc(Cl)c2F [Example 79, 6-chloro-5-fluoro-1-(4-fluoro-2-methylphenyl)-3-(2-methyl-6-oxo-1,6-dihydropyridin-3-yl)-2,3-dihydroquinazolin-4(1H)-one] | ≤ 100 nM |
| Cc1cc(F)ccc1N1CN(c2ccc(=O)[nH]c2C)C(=O)c2ccc(S(C)(=O)=O)cc21 [Example 80, 1-(4-fluoro-2-methylphenyl)-3-(2-methyl-6-oxo-1,6-dihydropyridin, 3-yl)-7-(methylsulfonyl)-2,3-dihydroquinazolin-4(1H)-one] | 794 to 7940 nM |
| CCc1cc(F)ccc1N1CN(c2ccc(=O)[nH]c2C)C(=O)c2cc(Cl)ccc21 [Example 81, 6-chloro-1-(2-ethyl-4-fluorophenyl)-3-(2-methyl-6-oxo-1,6-dihydropyridin-3-yl)-2,3-dihydroquinazolin-4(1H)-one] | ≤ 100 nM |
| Cc1cc(=O)[nH]c(C)c1N1CN(c2ccc(F)cc2C(C)C)c2ccc(Cl)cc2C1=O [Example 82, 6-chloro-3-(2,4-dimethyl-6-oxo-1,6-dihydropyridin-3-yl)-1-(4-fluoro-2-isopropylphenyl)-2,3-dihydroquinazolin-4(1H)-one] | 126 to 631 nM |
| Cc1[nH]c(=O)ccc1N1CN(c2ccccc2)c2cc(C(F)(F)F)ccc2C1=O [Example 86, 3-(2-methyl-6-oxo-1,6-dihydropyridin-3-yl)-1-phenyl-7-(trifluoromethyl)-2,3-dihydroquinazolin-4(1H)-one] | 794 to 7940 nM |
| Cc1cc(F)ccc1N1CN(c2ccc(=O)[nH]c2C)C(=O)c2c(Cl)cccc21 [Example 88, 5-chloro-1-(4-fluoro-2-methylphenyl)-3-(2-methyl-6-oxo-1,6-dihydropyridin-3-yl)-2,3-dihydroquinazolin-4(1H)-one] | 126 to 631 nM |
| Cc1cc(F)ccc1N1CN(c2ccc(=O)[nH]c2C2CC2)C(=O)c2ccc(C(F)(F)F)cc21 [Example 90, 3-(2-cyclopropyl-6-oxo-1,6-dihydropyridin-3-yl)-1-(4-fluoro-2-methylphenyl)-7-(trifluoromethyl)-2,3-dihydroquinazolin-4(1H)-one] | ≤ 100 nM |
| COc1cc(F)ccc1N1CN(c2ccc(=O)[nH]c2C)C(=O)c2cc(Cl)ccc21 [Example 91, 6-chloro-1-(4-fluoro-2-methoxyphenyl)-3-(2-methyl-6-oxo-1,6-dihydropyridin-3-yl)-2,3-dihydroquinazolin-4(1H)-one] | ≤ 100 nM |
| Cc1[nH]c(=O)ccc1N1CN(c2ccc(F)cc2C(C)(C)C)c2ccc(Cl)cc2C1=O [Example 95, 1-(2-(tert-butyl)-4-fluorophenyl)-6-chloro-3-(2-methyl-6-oxo-1,6-dihydropyridin-3-yl)-2,3-dihydroquinazolin-4(1H)-one] | ≤ 100 nM |
| Cc1[nH]c(=O)ccc1N1CN(c2ccc(F)cc2C(C)C)c2cc(F)c(Cl)cc2C1=O [Example 98, 6-chloro-7-fluoro-1-(4-fluoro-2-isopropylphenyl)-3-(2-methyl-6-oxo-1,6-dihydropyridin-3-yl)-2,3-dihydroquinazolin-4(1H)-one] | ≤ 100 nM |
| COc1ccc2c(c1)N(c1ccc(F)cc1C)CN(c1ccc(=O)[nH]c1C)C2=O [Example 99, 1-(4-fluoro-2-methylphenyl)-7-methoxy-3-(2-methyl-6-oxo-1,6-dihydropyridin-3-yl)-2,3-dihydroquinazolin-4(1H)-one] | ≤ 100 nM |
| Cc1cc(F)ccc1N1CN(c2ccc(=O)[nH]c2C)C(=O)c2cc(Cl)cnc21 [Example 102, 6-chloro-1-(4-fluoro-2-methylphenyl)-3-(2-methyl-6-oxo-1,6-dihydropyridin-3-yl)-2,3-dihydropyrido[2,3-d]pyrimidin-4(1H)-one] | 126 to 631 nM |
| Cc1[nH]c(=O)ccc1N1CN(c2ccc(F)cc2C(C)C)c2cc(OC(F)(F)F)ccc2C1=O [Example 103, 1-(4-fluoro-2-isopropylphenyl)-3-(2-methyl-6-oxo-1,6-dihydropyridin-3-yl)-7-(trifluoromethoxy)-2,3-dihydroquinazolin-4(1H)-one] | ≤ 100 nM |

Other lines, results leading:

| IC50 | Compound |
| --- | --- |
| ≤ 100 nM | Cc1cc(OC(F)(F)F)ccc1N1CN(c2ccc(=O)[nH]c2C)C(=O)c2c1ccc(Cl)c2F [Example 74, 6-chloro-5-fluoro-1-(2-methyl-4-(trifluorometh-oxy)phenyl)-3-(2-methyl-6-oxo-1,6-dihydropyridin-3-yl)-2,3-dihydroquinazolin-4(1H)-one] |
| ≤ 100 nM | Cc1[nH]c(=O)ccc1N1CN(c2ccc(F)cc2C(C)C)c2ccc(Cl)cc2C1=O [Example 76, 6-chloro-1-(4-fluoro-2-isopropylphenyl)-3-(2-methyl-6-oxo-1,6-dihydropyridin-3-yl)-2,3-dihydroquinazolin-4(1H)-one] |
| ≤ 100 nM | CCc1[nH]c(=O)ccc1N1CN(c2ccc(F)cc2C(C)C)c2cc(C(F)(F)F)ccc2C1=O [Example 83, 3-(2-ethyl-6-oxo-1,6-dihydropyridin-3-yl)-1-(4-fluoro-2-isopropylphenyl)-7-(trifluoromethyl)-2,3-dihydroquinazolin-4(1H)-one] |
| 794 to 7940 nM | Cc1cc(F)ccc1N1CN(c2c[nH]c(=O)cn2)C(=O)c2ccc(C(F)(F)F)cc21 [Example 84, 1-(4-fluoro-2-methylphenyl)-3-(5-oxo-4,5-dihydropyrazin-2-yl)-7-(trifluoromethyl)-2,3-dihydroquinazolin-4(1H)-one] |
| ≤ 100 nM | Cc1cc2c(cc1F)C(=O)N(c1ccc(=O)[nH]c1C)CN2c1ccc(F)cc1C [Example 85, 6-fluoro-1-(4-fluoro-2-methylphenyl)-7-methyl-3-(2-methyl-6-oxo-1,6-dihydropyridin-3-yl)-2,3-dihydroquinazolin-4(1H)-one] |
| ≤ 100 nM | Cc1ccccc1N1CN(c2ccc(=O)[nH]c2C)C(=O)c2ccc(C(F)(F)F)cc21 [Example 87, 3-(2-methyl-6-oxo-1,6-dihydropyridin-3-yl)-1-(o-tolyl)-7-(trifluoromethyl)-2,3-dihydroquinazolin-4(1H)-one] |
| ≤ 100 nM | Cc1cc(F)ccc1N1CN(c2ccc(=O)[nH]c2C)C(=O)c2c(C)cccc21 [Example 89, 1-(4-fluoro-2-methylphenyl)-5-methyl-3-(2-methyl-6-oxo-1,6-dihydropyridin-3-yl)-2,3-dihydroquinazolin-4(1H)-one] |
| 126 to 631 nM | Cc1cc(F)ccc1N1CN(c2cc(=O)[nH]n2C)C(=O)c2ccc(C(F)(F)F)cc21 [Example 92, 1-(4-fluoro-2-methylphenyl)-3-(2-methyl-5-oxo-2,5-dihydro-1H-pyrazol-3-yl)-7-(trifluoromethyl)-2,3-dihydroquinazolin-4(1H)-one] |
| ≤ 100 nM | Cc1[nH]c(=O)ccc1N1CN(c2ccc(F)cc2C(C)C)c2cc(F)ccc2C1=O [Example 93, 7-fluoro-1-(4-fluoro-2-isopropylphenyl)-3-(2-methyl-6-oxo-1,6-dihydropyridin-3-yl)-2,3-dihydroquinazolin-4(1H)-one] |
| 794 to 7940 nM | Cc1cc(F)ccc1N1CN(c2c(C)nc(=O)[nH]c2C)C(=O)c2ccc(C(F)(F)F)cc21 [Example 94, 3-(4,6-dimethyl-2-oxo-1,2-dihydropyrimidin-5-yl)-1-(4-fluoro-2-methylphenyl)-7-(trifluoromethyl)-2,3-dihydroquinazolin-4(1H)-one] |
| ≤ 100 nM | Cc1[nH]c(=O)ccc1N1CN(c2ccc(F)c(F)c2C)c2ccc(C(F)(F)F)cc2C1=O [Example 96, 1-(3,4-difluoro-2-methylphenyl)-3-(2-methyl-6-oxo-1,6-dihydropyridin-3-yl)-6-(trifluoromethyl)-2,3-dihydroquinazolin-4(1H)-one] |
| ≤ 100 nM | Cc1[nH]c(=O)ccc1N1CN(c2ccc(F)cc2C(C)C)c2ccc(Cl)c(C)c2C1=O [Example 97, 6-chloro-1-(4-fluoro-2-isopropylphenyl)-5-methyl-3-(2-methyl-6-oxo-1,6-dihydropyridin-3-yl)-2,3-dihydroquinazolin-4(1H)-one] |
| 794 to 7940 nM | Cc1cc(F)ccc1N1CN(c2ccc(=O)[nH]c2C)C(=O)c2cc(O)c(C(F)(F)F)cc21 [Example 100, 1-(4-fluoro-2-methylphenyl)-6-hydroxy-3-(2-methyl-6-oxo-1,6-dihydropyridin-3-yl)-7-(trifluoromethyl)-2,3-dihydroquinazolin-4(1H)-one] |
| ≤ 100 nM | COc1cc2c(cc1C(F)(F)F)N(c1ccc(F)cc1C)CN(c1ccc(=O)[nH]c1C)C2=O [Example 101, 1-(4-fluoro-2-methylphenyl)-6-methoxy-3-(2-methyl-6-oxo-1,6-dihydropyridin-3-yl)-7-(trifluoromethyl)-2,3-dihydroquinazolin-4(1H)-one] |
